In patent US8618287B2, “Derivatives of triazines and uracils, their preparation and their application in human therapeutics” (Pierre Fabre Medicament, priority 2008, dated 2013):

Experiments:
[1] = biological target: T1, Human SCD-1 (Homo sapiens, UniProt O00767); assay: Human SCD-1 enzymatic activity from microsomes of HepG2 cells (conversion of stearic acid into oleic acid); format: biochemical; conditions: 10 μM compound; microsomal fraction of HepG2 cells; relative to carrier 0.1% DMSO; read-out: HSCD-1 (HEPG2) % inh. (10 μM)
T1 construct: adding 125 μg of microsomal fraction of HepG2 cells; host or cells: HepG2 human hepatocarcinoma cells (microsomal fraction)
T1 sequence (O00767 1-359): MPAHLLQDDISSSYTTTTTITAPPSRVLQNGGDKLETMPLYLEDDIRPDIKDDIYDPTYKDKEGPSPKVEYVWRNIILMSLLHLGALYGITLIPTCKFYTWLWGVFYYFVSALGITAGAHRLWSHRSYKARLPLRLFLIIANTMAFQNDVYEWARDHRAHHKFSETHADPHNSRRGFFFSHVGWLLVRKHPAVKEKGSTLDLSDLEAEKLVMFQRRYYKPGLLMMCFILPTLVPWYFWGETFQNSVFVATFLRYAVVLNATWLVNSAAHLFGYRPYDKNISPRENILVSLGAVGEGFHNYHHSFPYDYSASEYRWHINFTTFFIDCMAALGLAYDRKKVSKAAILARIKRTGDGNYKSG
Method: In vitro: Human SCD-1 enzymatic activity from microsomes of HepG2 cells after treatment with inhibitory compounds (inhibition %).
Human hepatocarcinoma HepG2 cells (ATCC, HB-8065) are grown to confluence and then trypsinized. The cell pellet is taken up in 10 mM Tris buffer (pH 7.4), saccharose (250 mM) DTT (1 mM) and then the cells are lyzed by sonication. The microsomes are obtained after centrifugation at 10,000 g for 20 minutes a 4° C. followed by centrifugation of the supernatant at 100,000 g for 60 minutes a 4° C. The pellet is taken up in 10 mM Tris buffer (pH 7.4) saccharose (250 mM) at 4° C. and the microsomal proteins are assayed and stored at −196° C. (liquid nitrogen).
The enzymatic reaction measures the conversion of stearic acid (a C18:0 fatty acid) into oleic acid (C18:1 fatty acid) by SCD-1. The enzymatic reaction is started by adding 125 μg of microsomal fraction of HepG2 cells to tubes (total reaction volume of 500 μl) containing 62 μM of stearic acid (45 μM of stearic acid and 17 μM of [^14C] stearic acid) in a phosphate buffer at 100 mM (pH 7.16) with 7.2 mM of ATP, 0.54 mM of CoA, 6 mM of MgCl2, 0.8 mM of NADH and the inhibitory compound or the carrier (0.1% DMSO). The tubes are incubated for 20 minutes at 37° C. and the enzymatic reaction is then stopped by adding KOH (12%) and saponification for 30 minutes at 80° C. After acidification (3N HCl), the fatty acids are extracted twice with ethyl ether, evaporated under nitrogen before being taken up with a methanol/dichloromethane (3:1) mixture. The product of the reaction (C18:1) is separated from the substrate of the reaction (C18:0) by HPLC (Perkin Elmer, C18 reverse phase column) coupled to a on-line radioactivity detector (FlowOne). Enzymatic activity is calculated in picomoles of stearic acid converted into oleic acid per minute and per mg of protein. For each inhibitory compound, an inhibition % is determined relatively to the reference enzymatic activity (carrier 0.1% DMSO). Sterculic acid is the reference inhibitory compound (Gomez F. E., Bauman D. E., Ntambi J. M., Fox B. G. Effects of sterculic acid on stearoyl-CoA desaturase in differentiating […] adipocytes. Biochem Biophys Res Commun. 300 316-326 (2003)).

inhibition at 10 µM [1] [%] | melting point [°C] | SMILES
73 | 102 | Cc1ccccc1OC1CCN(c2nn(C)c(=O)n(C)c2=O)CC1 [Example 31, 2,4-dimethyl-6-(4-o-tolyloxy-piperidin-1-yl)-2H-[1,2,4]triazine-3,5-dione]
57 | 205 | Cn1c(=O)[nH]nc(N2CCN(Cc3ccccc3C(F)(F)F)CC2)c1=O [Example 64, 4-methyl-6-[4-(2-trifluoromethyl-benzyl)-piperazin-1-yl]-2H-[1,2,4]triazine-3,5-dione]
87 | 111 | Cn1c(=O)c(N2CCC(Oc3ccccc3C(F)(F)F)CC2)nn(-c2ccc(F)cc2)c1=O [Example 80, 2-(4-fluoro-phenyl)-4-methyl-6-[4-(2-trifluoromethyl-phenoxy)-piperidin-1-yl]-2H-[1,2,4]triazine-3,5-dione]
79 | 72 | Cn1c(=O)c(N2CCC(Oc3ccccc3C(F)(F)F)CC2)nn(-c2ccc(C#N)cc2)c1=O [Example 83, 4-{4-methyl-3,5-dioxo-6-[4-(2-trifluoromethyl-phenoxy)-piperidin-1-yl]-4,5-dihydro-3H-[1,2,4]triazin-2-yl}-benzonitrile]
48 | 44 | CCOCCOCCn1nc(N2CCC(Oc3ccccc3C(F)(F)F)CC2)c(=O)n(C)c1=O [Example 88, 2-[2-(2-ethoxy-ethoxy)-ethyl]-4-methyl-6-[4-(2-trifluoromethyl-phenoxy)-piperidin-1-yl]-2H-[1,2,4]triazine-3,5-dione]

More lines, now with the values behind:

SMILES | inhibition at 10 µM [1] [%] | melting point [°C]
Cn1nc(N2CCC(Oc3cc(F)ccc3Cl)CC2)c(=O)n(C)c1=O [Example 30, 6-[4-(2-chloro-5-fluoro-phenoxy)-piperidin-1-yl]-2,4-dimethyl-2H-[1,2,4]triazine-3,5-dione] | 86 | 168
Cn1nc(N2CCC(Oc3ccc(F)cc3)CC2)c(=O)n(C)c1=O [Example 33, 6-[4-(4-fluoro-phenoxy)-piperidin-1-yl]-2,4-dimethyl-2H-[1,2,4]triazine-3,5-dione] | 48 | 70
Cn1nc(N2CCN(C(=O)c3cc(F)ccc3C(F)(F)F)CC2)c(=O)n(C)c1=O [Example 42, 6-[4-(5-fluoro-2-trifluoromethyl-benzoyl)-piperazin-1-yl]-2,4-dimethyl-2H-[1,2,4]triazine-3,5-dione] | 80 | 87
Cn1nc(N2CCN(Cc3ccccc3C(F)(F)F)CC2)c(=O)n(C)c1=O [Example 55, 2,4-dimethyl-6-[4-(2-trifluoromethyl-benzyl)-piperazin-1-yl]-2H-[1,2,4]triazine-3,5-dione] | 65 | 92
CCCCCCCn1c(=O)[nH]nc(N2CCC(Oc3ccccc3Cl)CC2)c1=O [Example 76, 6-[4-(2-chloro-phenoxy)-piperidin-1-yl]-4-heptyl-2H-[1,2,4]triazine-3,5-dione] | 62 | 95
Cc1ccccc1-n1nc(N2CCC(Oc3ccccc3C(F)(F)F)CC2)c(=O)n(C)c1=O [Example 79, 4-methyl-2-o-tolyl-6-[4-(2-trifluoromethyl-phenoxy)-piperidin-1-yl]-2H-[1,2,4]triazine-3,5-dione] | 54 | 106
Cn1c(=O)c(N2CCC(Oc3ccccc3C(F)(F)F)CC2)nn(-c2cccnc2)c1=O [Example 81, 4-methyl-2-pyridin-3-yl-6-[4-(2-trifluoromethyl-phenoxy)-piperidin-1-yl]-2H-[1,2,4]triazine-3,5-dione] | 98 | 63
Cn1c(=O)c(N2CCC(Oc3ccccc3C(F)(F)F)CC2)nn(-c2ccsc2)c1=O [Example 82, 4-methyl-2-thiophen-3-yl-6-[4-(2-trifluoromethyl-phenoxy)-piperidin-1-yl]-2H-[1,2,4]triazine-3,5-dione] | 100 | 85
COc1ccccc1-n1nc(N2CCC(Oc3ccccc3C(F)(F)F)CC2)c(=O)n(C)c1=O [Example 84, 2-(2-methoxy-phenyl)-4-methyl-6-[4-(2-trifluoromethyl-phenoxy)-piperidin-1-yl]-2H-[1,2,4]triazine-3,5-dione] | 53 | 128
Cn1c(=O)[nH]nc(N2CCC(Oc3ccccc3C(F)(F)F)CC2)c1=O [Example 85, 4-methyl-6-[4-(2-trifluoromethyl-phenoxy)-piperidin-1-yl]-2H-[1,2,4]triazine-3,5-dione] | 95 | 150
Cn1c(=O)c(N2CCC(Oc3ccccc3C(F)(F)F)CC2)nn(C2CCCCC2=O)c1=O (stereo not shown) [Example 86, 4-methyl-2-(2-oxo-cyclohexyl)-6-[4-(2-trifluoromethyl-phenoxy)-piperidin-1-yl]-2H-[1,2,4]triazine-3,5-dione] | 90 | 65
Cn1c(=O)c(N2CCC(Oc3ccccc3C(F)(F)F)CC2)nn(CCO)c1=O [Example 89, 2-(2-hydroxy-ethyl)-4-methyl-6-[4-(2-trifluoromethyl-phenoxy)-piperidin-1-yl]-2H-[1,2,4]triazine-3,5-dione] | 100 | 112
